Structures can show the parent of a compound that is named as a salt. Where two headings read alike, the source gives them in different places.
Tests used:
Type in all cases: cell-based
mouse PCLS = assay: Viability of mouse PCLS by ATP content (ATP bioluminescence, normalized to protein); details: for IC50 / CC50: Mus musculus; for IC 5% (best-fit) / IC 25% (best-fit): Table S3, unit not given; for Enhancement of drug toxicity by addition of the BA mixture: extra sum of squares F-test of fits with vs w/o BA
Procedure: (§1) In short, freshly prepared PCLS were transferred to 12-well plates (Greiner bio-one GmbH, Austria), one slice per well. Each well was filled with 1.3 mL pre-heated (37 ℃) and oxygenated (80%) Williams Medium E (1X, glutaMAX-1), which had been supplemented with 25 mM D-glucose monohydrate and 50 μg/ml Gentamicin (denoted as WME GG). […] The DMSO concentration used was below 0.5% in the incubation medium, equivalent to DMSO concentrations in solutions prepared by dilution of BA stock solutions with WME GG.
ATP was extracted by homogenization, followed by the centrifugation of the homogenate (16,000g at 4 °C for 5 min). The supernatant was collected, and the pellet was left to dry. An ATP Bioluminescence Assay Kit (Roche Diagnostics, Mannheim, Germany) was used to determine ATP content in the supernatant. The dried pellet was used to determine the total protein content of the PCLS using the Bio-Rad DC Protein Assay (Bio-Rad, Munich, Germany). The obtained ATP values were then normalized for the total protein content of the slice.
A minimum of three mouse livers was used for each experiment, using PCLS in triplicate from each liver. GraphPad Prism 8.4.3 was used to perform statistical analysis, using a Student’s unpaired two-tailed T-test to compare two means, or a one-way ANOVA to compare multiple means. One-way ANOVA was followed by either Tukey’s multiple comparisons test to compare all means within a dataset, or Dunnett’s multiple comparisons test to compare all means with their own control mean. Nonlinear regression analysis was followed by an extra sum of squares F-test to compare two fits. mRNA expression levels are shown as Log2(fold induction) (− ΔΔCt), though the data was statistically analyzed using the cycle threshold (ΔCt) values. Differences between groups were considered significant when p < 0.05.

Bsep (Abcb11) = assay: qRT-PCR gene expression in mouse PCLS: Bsep; details: 48 h
Procedure: (§2) In short, freshly prepared PCLS were transferred to 12-well plates (Greiner bio-one GmbH, Austria), one slice per well.
(§3) Three PCLS incubated under a given condition were pooled in a 1.5-mL Rnase-free test tube, snap-frozen in liquid nitrogen, and stored at – 80 °C until analysis. RNA was isolated using a FavorPrep Tissue Total RNA Mini Kit (Favorgen, Vienna, Austria). Subsequently, the RNA yield was quantified using a NanoDrop One instrument (Thermo Fisher Scientific, Massachusetts, USA). Isolated RNA was reverse-transcribed to cDNA using a cDNA synthesis kit (Reverse Transcription System, Promega, Benelux B.V.). The cDNA samples were subsequently loaded in the thermal cycler with a program set to 22 °C for 10 min, 42 °C for 15 min, and 95 °C for 5 min.
qRT-PCR was used to determine the relative mRNA expression levels for the mouse target genes: Bsep (Abcb11), Mrp2 (Abcc2), Mrp3 (Abcc3), Mrp4 (Abcc4), Ntcp (Slc10a1), Fxr (Nr1h4), Cyp7a1 (Cyp7a1), Collagen type 1a1 (Col1a1), Hsp47 (Serpinh1). Primer sequences of the genes tested are given in Supplementary Table S1. QRT-PCR was performed using, the dye, FastStart Universal SYBR Green Master Mix (Roche Diagnostics Netherlands B.V., Almere, the Netherlands) with the ViiA™ 7 Real-Time PCR System (Applied Biosystems, Bleiswijk, the Netherlands). The first cycle constituted 10 min at 95 °C, followed by 40 cycles of 15 s at 95 °C, 30 s at 60 °C and 30 s at 72 °C, followed by 1 cycle dissociation stage (15 s: 95 °C, 60 °C and 95 °C). A minimum of four mouse livers was used for each experiment, using three PCLS per condition. Samples were measured in duplicates. […] Results are expressed as log2(fold change).

Mrp2 (Abcc2) = assay: qRT-PCR gene expression in mouse PCLS: Mrp2; details: 48 h, in the presence and absence of BAs
Procedure: as §1
as §3, with “The cDNA samples were subsequently loaded in the thermal cycler with a program set to 22 °C for 10 min, 42 °C for 15 min, and 95 °C for 5 min.” left out
qRT-PCR was used to determine the relative mRNA expression levels for the mouse target genes: Bsep (Abcb11), Mrp2 (Abcc2), Mrp3 (Abcc3), Mrp4 (Abcc4), Ntcp (Slc10a1), Fxr (Nr1h4), Cyp7a1 (Cyp7a1), Collagen type 1a1 (Col1a1), Hsp47 (Serpinh1). […] Samples were measured in duplicates. […] Results are expressed as log2(fold change).

Bsep = assay: Western blot of Bsep protein in mouse PCLS; details: 48 h
Procedure: as §2
In brief, the protein was extracted from three slices per treatment, and protein samples were denatured (75 °C for 10 min). […] Gels were blotted onto 0.2-μm polyvinylidene fluoride membranes using a Trans-Blot Turbo Transfer System (Bio-Rad, Munich, Germany), set to ramp up to 25 V in 15 min, at a constant current of 2.5 A. Membranes were then treated for 1 h with a protein blocking agent to prevent non-specific binding of antibodies, and incubated at 4 °C overnight with Bsep primary antibody (monoclonal antibody rabbit anti-Bsep, 1:2500, Tebu-Bio, Le Perray-en-Yvelines, France), Ntcp primary antibody (polyclonal antibody, rabbit anti-Ntcp, 1:2000, Tebu-Bio), and vinculin (116 kDa) primary antibody (monoclonal antibody, mouse anti-Vinculin, 1:500, Santa Cruz, California, USA). The following day, membranes were incubated with matching secondary antibodies for 1 h (Goat anti-rabbit HRP (Bsep and Ntcp), 1:2000; Rabbit anti-mouse HRP (vinculin), 1:5000, Dako, Santa Clara). Proteins were then visualized by adding Clarity Western ECL blotting substrate (Bio-Rad, Munich, Germany) and using a ChemiDoc Touch Imaging System (BioRad, Munich, Germany) for imaging of the resulting chemiluminescence. Afterward, Bsep and Ntcp expression was normalized by vinculin expression.

[1] = non-toxic concentration (CPZ 15 μM, CSA 1 μM, GB 25 μM), vs control with no drug and no BAs

SMILES	IC50 (mouse PCLS; 48 h, read-out: IC 50% (best-fit), Table S3, mouse PCLS, 48 h, w/o BA, unit not printed in table (µM in Fig. 4))	IC50 (mouse PCLS; 48 h, read-out: IC 50% (best-fit), Table S3, mouse PCLS, 48 h, with BA, unit not printed in table (µM in Fig. 4))	IC50 (mouse PCLS; 48 h, read-out: IC50 (50% loss in viability, ATP content), mouse PCLS, 48 h, one value or range given for with and w/o BA)	CC50 (mouse PCLS; 48 h, read-out: IC50 (50% loss in viability, ATP content), mouse PCLS, 48 h, w/o BA mixture)	CC50 (mouse PCLS; 48 h, read-out: IC50 (50% loss in viability, ATP content), mouse PCLS, 48 h, with BA mixture)	IC 5% (best-fit) (mouse PCLS; 5% decrease in ATP content, 48 h, w/o BA)	IC 5% (best-fit) (mouse PCLS; 5% decrease in ATP content, 48 h, with BA)	IC 25% (best-fit) (mouse PCLS; 25% decrease in ATP content, 48 h, w/o BA)	IC 25% (best-fit) (mouse PCLS; 25% decrease in ATP content, 48 h, with BA)	Enhancement of drug toxicity by addition of the BA mixture (mouse PCLS; mouse PCLS, 48 h)	Bsep gene expression (Bsep (Abcb11); in the presence and absence of BAs, vs control without drug)	Mrp2 gene expression (Mrp2 (Abcc2))	Bsep protein expression (western blot band intensity) (Bsep; non-toxic concentration (CPZ 15 μM, CSA 1 μM), in the presence of the BA mixture)	Bsep protein expression (western blot band intensity) (Bsep; [1])	IC50 (mouse PCLS; 48 h, read-out: IC50 (50% loss in viability, ATP content))	IC50 (mouse PCLS; read-out: IC 50% (best-fit))	IC 5% (best-fit) (mouse PCLS; IC the same with and w/o BA)	IC 25% (best-fit) (mouse PCLS; IC the same with and w/o BA)	Bsep gene expression (Bsep (Abcb11); 25 µM GB, when BAs are present)	Bsep gene expression (Bsep (Abcb11); 65 μM GB, when BAs are present)
CN(C)CCCN1c2ccccc2Sc2ccc(Cl)cc21 [CPZ, Chlorpromazine hydrochloride]	29.1 µM	21.6 µM	22 to 29 µM	29 µM	22 µM	15.4	11.4	22.9	17.0	enhanced the toxicity of CPZ considerably	reduces	reduces	less pronounced	significant decrease in band intensity						
COc1ccc(Cl)cc1C(=O)NCCc1ccc(S(=O)(=O)NC(=O)NC2CCCCC2)cc1 [GB, Glibenclamide]										not observed		increases the expression of Mrp2		did not induce any significant changes	70 µM	69.7 µM	37.9	55.5	increases	decreases Bsep expression significantly

— paper PMC9325861, “Mouse precision-cut liver slices as an ex vivo model to study drug-induced cholestasis” (Archives of Toxicology, 2022)
